Measurements taken from patent US20220054644A1, “NOVEL DRUG DELIVERY CONJUGATED MOIETY FOR ORAL ADMINISTRATION OF DRUG UNSUITABLE FOR ORAL ADMINISTRATION AND PREPARATION METHOD THEREOF” (ST PHARM CO., LTD, priority 2015, published 2022).

Legend:
[1] = test system: deep vein thrombosis (DVT) disease models; assay: Measurement of DVT activities (rat deep vein thrombosis model); type: in vivo; details: rats, LMWH (enoxaparin) injected subcutaneously
Experimental: Low molecular weight heparin (enoxaparin) was administered to one group by subcutaneous injection, and the formulated complex of Example 2 was administered orally to other groups. […] The distal end of the vein along about 3 cm was weakly tied off, and the remaining veins were strongly tied off. 60 minutes after the drug treatment, 1 mL/kg of human pooled plasma was administered intravenously to the ends of the tails at 37° C., and the veins were tied off after 15 seconds to prevent blood flow. The veins were isolated 120 minutes after the drug treatment and stored in a Petri dish with 3.8% sodium citrate. Then, thrombus was isolated, and the amount of […] generated was measured.

[2] = rat, in vivo, iv, 2 mg/kg
Experimental: The following experiment was performed to determine the pharmacokinetic (PK) behavior of heparin administered orally using the drug delivery conjugated moiety of the present invention.
Prior to drug administration, experimental animals (rats) were fasted for more than 4 hours to empty the stomach. Then, after the dorsal skin was fixed, forced oral administration was performed using a sonde and a syringe for oral administration, and the animals were fed again about 4 hours after the administration. […] Blood samples (450 μL) were collected in a tube containing sodium citrate (50 μL) and centrifuged at 4500×g for 20 minutes to isolate plasma, which was then stored in a deep freezer at −70° C. The concentration of the drug delivery conjugated moiety-heparin complex in the plasma was analyzed using the COATEST HEPARIN FXa assay (Chromogenix).

[3] = test system: FXa (Bovine Factor Xa); assay: Measurement of FXa: heparin activity with COATEST HEPARIN FXa assay kit; type: biochemical; details: chromogenic substrate S-2222, absorbance at 405 nm
Experimental: The term “heparin activity” refers to the anticoagulant ability of heparin.
Stock solutions were prepared from 10 IU/ml of standard solution by accurately preparing test substances and then diluted to 0.1 IU/ml with buffer working solution (Tris 0.5 mol/L, pH=8.4, 10 ml, Chromogenix) to prepare standard solutions for each dose as shown in the following table 2 and used for the analysis.
Each 200 μL of pretreated samples was placed in a cuvette and preheated at 37° C. for 3 to 4 minutes. Each 100 μl of FXa (Bovine Factor Xa 71 nkat., Chromogenix) was added thereto and left at 37° C. for about 30 seconds. Then, each 200 μl of S-2222 (Chromogenic substrate (Bz-Ile-Glu-(g-OR)-Gly-Arg-pNA.HCl), Chromogenix) was added thereto and left at 37° C. for 3 minutes. Subsequently, each 300 μl of 20% acetic acid was added thereto, and then the absorbance was measured at 405 nm. At this time, the measurement should be performed within 4 hours.
A linear regression equation was obtained using calibration curve of the standard solutions and converted to obtain the titers of the samples.

What does the source list for enoxaparin [LMWH]?
thrombus generated, compared with complex of Example 2 [1]: almost the same results; AUC (Area under the concentration-time curve from 0 to 8 h) [2]: 1.8 ± 0.1 IU · h/ml; CL (Clearance) [2]: 17 ± 0 mL/day/kg; Emax (Maximum effective concentration) [2]: 1.61 ± 0.02 IU/ml; Tmax (Time to reach maximum effective concentration) [2]: 12 ± 0 min; t1/2 (Half-life of drug) [2]: 72 ± 6 min; Anti-factor Xa activity [3]: 101 IU/mg
